{
  "source": "patent US20200038338A1",
  "about": "“LONG TERM DRUG DELIVERY BY TATTOO” (priority 2018, published 2020)",
  "key": {"[1]": {"system": "basal cell carcinoma (BCC)", "assay": "Treatment of basal cell carcinoma: vismodegib delivered by tattoo machine"}, "[2]": {"system": "androgenetic alopecia (hair loss)", "conditions": "minoxidil microinjections once a month for four months; cited from earlier work"}, "[3]": {"system": "terminal hairs of beard or scalp (alopecia)", "assay": "Treatment of alopecia: minoxidil delivered to the dermis by tattoo machine", "assay_type": "in vivo", "conditions": "5 wt % minoxidil suspension in PEG 400 by tattoo to dermis, once every 2 months, after 6 months (3 sessions); versus control side with minoxidil in water to saturation; three subjects", "method": "A suspension of minoxidil suspension at 5 wt % is created in a PEG 400 vehicle. As a control minoxidil is added to water to saturation. The test and control agents are delivered by tattoo machine to the dermis on independent sides of the face (either beard, eyebrow, or scalp) of the same subject once every 2 months for 6 months (i.e. 3 administrations). Three different subjects were tested. The side that was treated in the beard or scalp had approximately 300% more terminal (thick, strong) hairs per unit area, after 6 months (3 sessions)."}, "psoriatic plaques": {"system": "psoriatic plaques", "assay": "Treatment of psoriasis: methotrexate delivered to the dermal layer by tattoo machine", "assay_type": "in vivo", "conditions": "control: 25 mg/ml methotrexate by injection once a month for 9 months"}},
  "data": [
    {"compound": "CS(=O)(=O)c1ccc(C(=O)Nc2ccc(Cl)c(-c3ccccn3)c2)c(Cl)c1", "note": "[vismodegib]", "values": [
      {"measurement": "side effects, control", "setting": "[1]; control: vismodegib orally for 6 months", "result": "muscle tremors, loss of appetite, reduction of smell and taste"},
      {"measurement": "BCCs resolved, control", "setting": "[1]; control: vismodegib orally, first 6 months", "result": 50, "unit": "%"},
      {"measurement": "clearance of the BCC", "setting": "[1]; vismodegib suspension with polyethylene glycol by tattoo machine, once a week for 6 months", "result": 90, "unit": "%"}
    ]},
    {"compound": "Nc1cc(N2CCCCC2)nc(N)[n+]1[O-]", "note": "[minoxidil]", "values": [
      {"measurement": "side effects noted by the subjects", "setting": "[2]", "result": "No side effects were noted by the subjects, besides minor localized pain"},
      {"measurement": "more terminal (thick, strong) hairs per unit area on the treated side", "setting": "[3]", "result": "approximately 300%"}
    ]},
    {"compound": "CN(Cc1cnc2nc(N)nc(N)c2n1)c1ccc(C(=O)N[C@@H](CCC(=O)O)C(=O)O)cc1", "note": "[methotrexate]", "values": [
      {"measurement": "side effects, control", "setting": "psoriatic plaques", "result": "increased liver enzymes"}
    ]}
  ]
}
